Reference: patent US20050267067A1, “Radical reaction inhibitors, method for inhibition of radical reactions, and use thereof” (priority 2002, published 2005)

Experiments:
sucrase = assay: Sucrase activity of rat small intestinal mucosal enzyme solution after AAPH oxidation; type: biochemical
Experimental: One milliliter of the above rat small intestinal mucosal enzyme solution, one milliliter of a 100 mM AAPH solution, one milliliter of a 50 mM phosphate buffer (pH 7.2), and one milliliter of a 400 mM of the crystalline cyclotetrasaccharide pentahydrate prepared in Experiment 1-1 were mixed, incubated at 37° C. for two hours, and measured for the activities of sucrase and maltase.
After incubated at 37° C. for 30 min, the mixture was quantified for free glucose by the GOD method.

maltase = assay: Maltase activity of rat small intestinal mucosal enzyme solution after AAPH oxidation; type: biochemical
Experimental: One milliliter of the above rat small intestinal mucosal enzyme solution, one milliliter of a 100 mM AAPH solution, one milliliter of a 50 mM phosphate buffer (pH 7.2), and one milliliter of a 400 mM of the crystalline cyclotetrasaccharide pentahydrate prepared in Experiment 1-1 were mixed, incubated at 37° C. for two hours, and measured for the activities of sucrase and maltase. […] To a half milliliter of a maltose solution, which had been prepared by dissolving maltose in 50 mM sodium maleate (pH 6.6) to give a concentration of one percent (%), 0.05 ml of a AAPH-rat small intestinal mucosal enzyme solution. After incubated at 37° C. for 30 min, the mixture was quantified for free glucose by the GOD method. One unit (U) activity of maltase was defined as an enzyme amount that releases two micromoles of glucose per minutes from maltose at 37° C.

[1] = Modification of L-lysine by lipid peroxides (protein carbonyl, OLAARPs); settings: for OLAARPs Formation: (%) / Protein carbonyl Formation: (%): L-lysine, versus no saccharide; for Formed OLAARPs / Formed Protein carbonyl: 37° C., 24 hours
Experimental: (§1) In this experiment, saccharide solutions were prepared to give an equal total saccharide molar concentration in each solution.
(§2) As a negative control, PBS was used.
(§3) To five milliliters of either of the above saccharide solutions for testing or the negative control was added 10 mg of calf serum albumin (BSA) or L-lysine, followed by dissolving. To each of the resulting solutions was added 25 μg of 2,4-decadienal or malondialdehyde (MDA) as a lipid peroxide, followed by reaction at 37° C. for 24 hours. After completion of the reaction, protein carbonyl and reaction products of oxidized lipids/aminoacids (OLAARPs) formed as aldehyde adducts were quantified on the calorimetric method. […] The formation levels of protein carbonyl and OLAARPs were determined based on the absorbances obtained in this experiment, in terms of the molar absorbance coefficient for each molecule as disclosed in Biochim. Biophys. Acta, No. 1,258, pp. 319-327 (1985).
To each of the resulting mixtures was added 600 μl of 30% trichloroacetic acid, and the mixture was allowed to stand at 0° C. for one hour and centrifuged at 10,000 rpm for 15 min to obtain a precipitate, followed by washing the resulting precipitate four times with two milliliters of ethanol/ethylacetate (1:1), respectively, adding 1.5 ml of 6M-guanidine hydrochloride/20 mM-NaPi/TFA (pH 2.3) to the resultant, allowing the mixture to stand at 37° C. for 30 min, and measuring the absorbance of the resulting mixture at a wavelength of 580 nm, ε=35,000 M^−1 cm^−1. […] To any one of the resulting mixtures was added two milliliters of a 12.5 mM DNPH/2.5 N-hydrochloride solution, and the resulting mixture was allowed to stand at 45° C. for 30 min, followed by measuring the absorbance of the resulting mixture at a wavelength of 580 nm, E=35,000 M^−1 cm^−1.

calf serum albumin (BSA) = assay: Modification of BSA by lipid peroxides (protein carbonyl, OLAARPs); type: biochemical; settings: for OLAARPs Formation: (%) / Protein carbonyl Formation: (%): BSA, versus no saccharide; for Formed OLAARPs / Formed Protein carbonyl: 37° C., 24 hours
Experimental: as §1, §2
as §3, with “Biophys.” for “Biophys. Acta, No. 1,258, pp. 319-327 (1985).”
To each of the resulting mixtures was added 600 μl of 30% trichloroacetic acid, and the mixture was allowed to stand at 0° C. for one hour and centrifuged at 10,000 rpm for 15 min to obtain a precipitate, followed by washing the resulting precipitate four times with two milliliters of ethanol/ethylacetate (1:1), respectively, adding 1.5 ml of 6M-guanidine hydrochloride/20 mM-NaPi/TFA (pH 2.3) to the resultant, allowing the mixture to stand at 37° C. for 30 min, and measuring the absorbance of the resulting mixture at a wavelength of 580 nm, ε=35,000 M^−1 cm^−1.

[2] = enzyme solution incubated with AAPH at 37° C. for two hours, with or without cyclotetrasaccharide
[3] = versus system with no AAPH, 37° C., two hours
[4] = added lipid peroxide 2,4-decadienal
[5] = added lipid peroxide malondialdehyde (MDA)

Row | Structure (SMILES) | Sucrase activity (sucrase; [2]) [u/mg-protein] | Sucrase Relative residual activity (%) (sucrase; [3]) | Maltase activity (maltase; [2]) [u/mg-protein] | Maltase Relative residual activity (%) (maltase; [3]) | OLAARPs Formation: (%) ([1]; 2,4-decadienal) | Protein carbonyl Formation: (%) ([1]; 2,4-decadienal) | OLAARPs Formation: (%) ([1]; MDA) | Protein carbonyl Formation: (%) ([1]; MDA) | Formed OLAARPs [1, 4] [μmol/g-L-lysine] | Formed Protein carbonyl [1, 4] [μmol/g-L-lysine] | Formed OLAARPs [1, 5] [μmol/g-L-lysine] | Formed Protein carbonyl [1, 5] [μmol/g-L-lysine] | OLAARPs Formation: (%) (calf serum albumin (BSA); 2,4-decadienal) | Protein carbonyl Formation: (%) (calf serum albumin (BSA); 2,4-decadienal) | OLAARPs Formation: (%) (calf serum albumin (BSA); MDA) | Protein carbonyl Formation: (%) (calf serum albumin (BSA); MDA) | Formed OLAARPs (calf serum albumin (BSA); [4]) [μmol/g-BSA] | Formed Protein carbonyl (calf serum albumin (BSA); [4]) [μmol/g-BSA] | Formed OLAARPs (calf serum albumin (BSA); [5]) [μmol/g-BSA] | Formed Protein carbonyl (calf serum albumin (BSA); [5]) [μmol/g-BSA]
1 | CC(C)(N=NC(C)(C)C(=N)N)C(=N)N.Cl.Cl [AAPH, 2,2′-azo-bis(2-amidinopropane)dihydrochloride, reference compound] | 0.0042 | (29) % | 0.0555 | (71) % | – | – | – | – | – | – | – | – | – | – | – | – | – | – | – | –
2 | OC[C@@H](O)[C@@H](O[C@H]1O[C@H](CO)[C@@H](O)[C@H](O)[C@H]1O)[C@H](O)[C@@H](O)CO [Maltitol, maltitol] | – | – | – | – | (73) % | (51) % | (84) % | (55) % | 5.90 | 6.81 | 7.23 | 3.29 | (67) % | (53) % | (48) % | (53) % | 2.83 | 7.51 | 2.78 | 1.29
3 | OC[C@H]1O[C@@](CO)(O[C@H]2O[C@H](CO)[C@@H](O)[C@H](O)[C@H]2O)[C@@H](O)[C@@H]1O [Sucrose, sucrose] | – | – | – | – | (93) % | (81) % | (94) % | (96) % | 7.54 | 10.92 | 8.13 | 5.75 | – | – | – | – | – | – | – | –
